Where “and” joins values, the source holds several entries; their conditions need not be identical. Identical values can stand only once. Like-named read-outs stand apart in the source and are kept apart here. One block for each compound: values may come before it.
Assays:
Format in all cases: physicochemical
[1] = Tapped density
Method: (§1) Tapped density of the granulates of the present invention is typically at least about 0.6 g/mL, at least about 0.75 g/mL, at least about 0.80 g/mL, at least about 0.85 g/mL, or at least about 0.90 g/mL. Overall, the tapped density of the granulates of the present invention generally ranges from about 0.6 g/mL to about 1.0 g/mL, from about 0.7 g/mL to about 0.95 g/mL, or from about 0.8 g/mL to about 0.9 g/mL (e.g., about 0.85 g/mL). Bulk and tapped density as reported herein are determined by USP <616>, but it should be understood that other methods known in the art may be also be utilized to determine the tapped densities of compositions of the present invention.
(§2) Tare a 250 mL graduated glass cylinder. Fill with 100 grams of sample. Reweigh to determine weight. Record Initial Volume. The bulk density is the weight in grams divided by the volume (mL). Tap 1000 times by the automated tapping device. Read final volume. The tapped density is the weight in grams divided by the tapped volume (mL).

[2] = MALVERN MASTERSIZER 2000 particle size (d10, d50, d90); details: for d50: after U5 COMIL, 0.032″ round hole screen
Method: (§3) All particle size (PS) analyses were conducted using a ROTAP Particle Size Analyzer and a MALVERN MASTERSIZER 2000, except as otherwise indicated. All particle size data were measured in microns and analyzed via the MALVERN MASTERSIZER 2000.

[3] = ROTAP sieve particle size distribution (% retained); details: for Particle Size Distribution (% Retained) 12: 12 mesh screen; for Particle Size Distribution (% Retained) 20: 20 mesh screen; for Particle Size Distribution (% Retained) 40: 40 mesh screen; for Particle Size Distribution (% Retained) 60: 60 mesh screen; for Particle Size Distribution (% Retained) 80: 80 mesh screen; for Particle Size Distribution (% Retained) 100: 100 mesh screen; for Particle Size Distribution (% Retained) 200: 200 mesh screen; for Particle Size Distribution (% Retained) Pan: receiving pan
Method: as §3
Particle Size: During the granulation process, an approximately 300 g sample is taken from material of the finished product drum starting with the first drum and every sixth drum thereafter, including the last drum (i.e. drum #1, 7, 13, 19 etc.). […] Each fraction was weighed and percent retained was calculated.

[4] = Bulk density
Method: as §1, §2

[5] = Moisture, loss on drying (LOD), halogen moisture balance; details: final / as dried material
From the text: Unless otherwise indicated, the following equipment was used in Examples 1a and 1b: R&D TURBULIZER High Shear Granulator, Model TCB; Large ACCURATE Powder Feeder; AEROMATIC Fluid Bed Dryer, Model S-2; ADMIX High Shear Mixer; SWECO Vibratory Sieve, 18″; STURTEVANT MICRONIZER Jet Mill, Model 45DM; Halogen Moisture Balance (to determine moisture levels); MALVERN MASTERSIZER 2000 (particle size analyzer); ROTAP particle size analyzer; and a Tapped Density Tester.
A sample of lactitol monohydrate (DANISCO) was evaluated for particle size moisture (loss on drying (LOD)), bulk density, and tapped density. […] A photo micrograph of the material was also generated (FIG. 2).
At approximately 125 g/min, the expected moisture level would be approximately 3.4%. However, at this initial binder flow rate, the granulation exiting the mixer felt too dry and was not as granular as desired. […] The final setting was 37 Hz or approximately 140 g/min. At this binder flow rate the expected granulation moisture level would be approximately 3.8%. No additional adjustments were made to the operating conditions over the remainder of the run. The final wet granulation moisture was approximately 2%. In order to improve the accuracy of the LOD moisture results the moisture balance test conditions were altered.
The expected moisture level at this setting would be approximately 4%. […]

[6] = HANSON FLODEX powder flowability (viscosity)
From the text: Samples were also subjected to flowability testing using a HANSON FLODEX Powder Flowability tester. The basis for the method is the powders ability to fall freely through a hole in a plate. The diameter of the smallest hole through which the powder passes is considered the flowability index. The flowability index (radius of hole size in cm) along with the bulk density of the material tested are then used to determine the viscosity (internal friction coefficient) of the powder. Lower powder viscosity indicates better flowability.
Samples of the finished lactitol granulations produced during execution of the commercial optimization protocol were also evaluated for flow using the HANSON Intrinsic Flowability Test. During the test, the smallest hole (in millimeters) that the product will flow through is determined in the FLODEX apparatus. Using this information and the bulk density of each powder (as determined in a 250 mL graduated cylinder) the coefficient of friction or viscosity (K) was calculated. The viscosity K (in poises) is equal to 490 (½ the acceleration of gravity) times the radius of the hole in centimeters times the bulk density of the sample. The result K is then multiplied by 100 to express the viscosity in centipoises.

[7] = Moisture content by Karl Fischer (KF)
Method: As noted, lactitol exists in the monohydrate, dihydrate, trihydrate, and hexahydrate forms. Lactitol monohydrate is the preferred form of lactitol for use. Lactitol monohydrate is defined by the EU-NP and USP-NF as having moisture content of between 4.5 wt % and 5.5 wt %. As used herein, the term “moisture content” refers to the total moisture content of a composition, including both free and bound water. Moisture contents reported here are determined by the Karl-Fischer (KF) method, but may also be determined by other suitable methods known in the art.
During the weighing of the ingredients for the binder solution and during the set up for granulation, an approximately 100 g sample representing each raw material is taken and placed into an appropriately labeled container. An approximately 0.3 gram sample is dispersed in methanol and test using a Karl Fischer moisture analyzer with HYDRANAL Composite 5 titrant using a 60 sec extraction time. Percent moisture was reported.
For each Qualification lot, at the beginning and middle of each shift samples were pulled using a sample thief from three locations within the tub after granulation but before drying. These samples were tested for moisture as described above.
Moisture content was also tested using the same procedure after the second drying step.

[8] = jet mill Grinding Pressure 25 PSI, Feed Injection Pressure 20 PSI
[9] = jet mill Grinding Pressure 25 PSI, Feed Injection Pressure 40 PSI
[10] = jet mill Grinding Pressure 25 PSI, Feed Injection Pressure 60 PSI
[11] = jet mill Grinding Pressure 30 PSI, Feed Injection Pressure 20 PSI
[12] = jet mill Grinding Pressure 30 PSI, Feed Injection Pressure 40 PSI
[13] = jet mill Grinding Pressure 30 PSI, Feed Injection Pressure 60 PSI
[14] = jet mill Grinding Pressure 35 PSI, Feed Injection Pressure 20 PSI
[15] = jet mill Grinding Pressure 35 PSI, Feed Injection Pressure 40 PSI
[16] = jet mill Grinding Pressure 35 PSI, Feed Injection Pressure 60 PSI

SMILES: OC[C@@H](O)[C@@H](O[C@@H]1O[C@H](CO)[C@H](O)[C@H](O)[C@H]1O)[C@H](O)[C@@H](O)CO [Jet Milled B]
- Tapped Density [1]: 0.933 g/mL
- PS d10 [2]: 5.3 μ
- PS d50 [2]: 60.0 μ
- PS d90 [2]: 316.2 μ
- d50 (mean particle size by volume distribution) [2]: 60 microns
- Particle Size Distribution (% Retained) 12 [3]: 0.0%
- Particle Size Distribution (% Retained) 20 [3]: 0.0%
- Particle Size Distribution (% Retained) 40 [3]: 1.9%
- Particle Size Distribution (% Retained) 60 [3]: 14.4%
- Particle Size Distribution (% Retained) 80 [3]: 17.2%
- Particle Size Distribution (% Retained) 100 [3]: 10.7%
- Particle Size Distribution (% Retained) 200 [3]: 36.3%
- Particle Size Distribution (% Retained) Pan [3]: 19.5%
- Bulk Density [4]: 0.670 g/mL

SMILES: O.OC[C@@H](O)[C@@H](O[C@@H]1O[C@H](CO)[C@H](O)[C@H](O)[C@H]1O)[C@H](O)[C@@H](O)CO [Raw Lactitol B]
- Tapped Density [1]: 0.754 g/mL
- PS d10 [2]: 94.2 μ
- PS d50 [2]: 365.3 μ
- PS d90 [2]: 720.3 μ
- Moisture NMT 3.0% [5]: 1.28%
- Particle Size Distribution (% Retained) 12 [3]: 0.0%
- Particle Size Distribution (% Retained) 20 [3]: 0.3%
- Particle Size Distribution (% Retained) 40 [3]: 64.4%
- Particle Size Distribution (% Retained) 60 [3]: 29.9%
- Particle Size Distribution (% Retained) 80 [3]: 3.6%
- Particle Size Distribution (% Retained) 100 [3]: 0.7%
- Particle Size Distribution (% Retained) 200 [3]: 0.8%
- Particle Size Distribution (% Retained) Pan [3]: 0.3%
- Bulk Density [4]: 0.677 g/mL

- Flow Viscosity [6]: ~10 CPS (×1000)
- viscosity (flowability) [6]: approximately 9,776 cps
- Tapped Density [1]: 0.925 g/mL
- Tapped Density ([1]; listed as Raw Lactitol A): 0.925 g/mL
- Tapped Density ([1]; listed as lactitol monohydrate): 0.93 g/mL
- PS d10 [2]: 112.4 μ
- PS d50 [2]: 426.1 μ
- PS d90 [2]: 922.8 μ
- Particle Size Span [2]: 1.9
- d50 (mean particle size by volume distribution) [2]: 426 microns
- d50 ([2]; round bar impeller, 1500 rpm): 235 microns
- d50 ([2]; round bar impeller, 1800 rpm): 196 microns
- d50 ([2]; square bar impeller, 4200 rpm): approximately 115 microns
- Moisture NMT 3.0% [5]: 0.61%
- KF moisture [7]: 4.93%
- Particle Size Distribution (% Retained) 12 [3]: 0.0%
- Particle Size Distribution (% Retained) 20 [3]: 10.0%
- Particle Size Distribution (% Retained) 40 [3]: 57.0%
- Particle Size Distribution (% Retained) 60 [3]: 26.3%
- Particle Size Distribution (% Retained) 80 [3]: 4.0%
- Particle Size Distribution (% Retained) 100 [3]: 0.9%
- Particle Size Distribution (% Retained) 200 [3]: 1.3%
- Particle Size Distribution (% Retained) Pan [3]: 0.5%
- Bulk Density [4]: 0.798 g/mL
SMILES: OC[C@@H](O)[C@@H](O[C@H]1O[C@H](CO)[C@H](O)[C@H](O)[C@H]1O)[C@H](O)[C@@H](O)CO [Raw Lactitol, 4-O-α-D-Galactopyranosyl-D-glucitol]

SMILES: OC[C@@H](O)[C@@H](O[C@@H]1O[C@H](CO)[C@H](O)[C@H](O)[C@H]1O)[C@H](O)[C@@H](O)CO [Sample 3b]
- PS d10 [2]: 7.6 μ
- PS d50 [2]: 113.1 μ
- PS d90 [2]: 656.4 μ
- Particle Size Span [2]: 5.7

SMILES: OC[C@@H](O)[C@@H](O[C@@H]1O[C@H](CO)[C@H](O)[C@H](O)[C@H]1O)[C@H](O)[C@@H](O)CO [jet milled lactitol]
- viscosity (flowability) [6]: 46,905 cps
- viscosity of jet milled lactitol, times higher than raw lactitol [6]: approximately 4.8 times
- Particle Size Span [2, 8]: 4.2
- Particle Size d10 [2, 8]: 10.8 μ
- Particle Size d50 [2, 8]: 150.7 μ
- Particle Size d90 [2, 8]: 646.1 μ
- Particle Size Span [2, 9]: 4.6
- Particle Size d10 [2, 9]: 8.5 μ
- Particle Size d50 [2, 9]: 122.9 μ
- Particle Size d90 [2, 9]: 585.1 μ
- Particle Size Span [2, 10]: 7.2
- Particle Size d10 [2, 10]: 5.5 μ
- Particle Size d50 [2, 10]: 84.3 μ
- Particle Size d90 [2, 10]: 619.5 μ
- Particle Size Span [2, 11]: 12.7
- Particle Size d10 [2, 11]: 4.5 μ
- Particle Size d50 [2, 11]: 47.8 μ
- Particle Size d90 [2, 11]: 615.2 μ
- Particle Size Span [2, 12]: 13.7
- Particle Size d10 [2, 12]: 4.5 μ
- Particle Size d50 [2, 12]: 46.3 μ
- Particle Size d90 [2, 12]: 640.1 μ
- Particle Size Span [2, 13]: 11.1
- Particle Size d10 [2, 13]: 4.5 μ
- Particle Size d50 [2, 13]: 45.6 μ
- Particle Size d90 [2, 13]: 513.0 μ
- Particle Size Span [2, 14]: 17.5
- Particle Size d10 [2, 14]: 4.1 μ
- Particle Size d50 [2, 14]: 36.0 μ
- Particle Size d90 [2, 14]: 635.0 μ
- Particle Size Span [2, 15]: 6.5
- Particle Size d10 [2, 15]: 5.8 μ
- Particle Size d50 [2, 15]: 83.4 μ
- Particle Size d90 [2, 15]: 548.6 μ
- Particle Size Span [2, 16]: 5.4
- Particle Size d10 [2, 16]: 7.6 μ
- Particle Size d50 [2, 16]: 110.9 μ
- Particle Size d90 [2, 16]: 611.9 μ

SMILES: OC[C@@H](O)[C@@H](O[C@@H]1O[C@H](CO)[C@H](O)[C@H](O)[C@H]1O)[C@H](O)[C@@H](O)CO [milled lactitol]
- KF moisture [7]: 5.05% and 4.99%
